{"source": "patent US11572590B2", "about": "“Methods for evaluating tumor cell spheroids using 3D microfluidic cell culture device” (Dana-Farber Cancer Institute, Inc., priority 2017, dated 2023)", "assay_in_all_cases": "SelectScreen Kinase Profiling, single point inhibition and IC50 for off-target kinases", "format_in_all_cases": "biochemical", "key": {"off-target kinases [1]": {"molecular_target": "off-target kinases (Homo sapiens, UniProt P08069)", "sequence (P08069 31-1367)": "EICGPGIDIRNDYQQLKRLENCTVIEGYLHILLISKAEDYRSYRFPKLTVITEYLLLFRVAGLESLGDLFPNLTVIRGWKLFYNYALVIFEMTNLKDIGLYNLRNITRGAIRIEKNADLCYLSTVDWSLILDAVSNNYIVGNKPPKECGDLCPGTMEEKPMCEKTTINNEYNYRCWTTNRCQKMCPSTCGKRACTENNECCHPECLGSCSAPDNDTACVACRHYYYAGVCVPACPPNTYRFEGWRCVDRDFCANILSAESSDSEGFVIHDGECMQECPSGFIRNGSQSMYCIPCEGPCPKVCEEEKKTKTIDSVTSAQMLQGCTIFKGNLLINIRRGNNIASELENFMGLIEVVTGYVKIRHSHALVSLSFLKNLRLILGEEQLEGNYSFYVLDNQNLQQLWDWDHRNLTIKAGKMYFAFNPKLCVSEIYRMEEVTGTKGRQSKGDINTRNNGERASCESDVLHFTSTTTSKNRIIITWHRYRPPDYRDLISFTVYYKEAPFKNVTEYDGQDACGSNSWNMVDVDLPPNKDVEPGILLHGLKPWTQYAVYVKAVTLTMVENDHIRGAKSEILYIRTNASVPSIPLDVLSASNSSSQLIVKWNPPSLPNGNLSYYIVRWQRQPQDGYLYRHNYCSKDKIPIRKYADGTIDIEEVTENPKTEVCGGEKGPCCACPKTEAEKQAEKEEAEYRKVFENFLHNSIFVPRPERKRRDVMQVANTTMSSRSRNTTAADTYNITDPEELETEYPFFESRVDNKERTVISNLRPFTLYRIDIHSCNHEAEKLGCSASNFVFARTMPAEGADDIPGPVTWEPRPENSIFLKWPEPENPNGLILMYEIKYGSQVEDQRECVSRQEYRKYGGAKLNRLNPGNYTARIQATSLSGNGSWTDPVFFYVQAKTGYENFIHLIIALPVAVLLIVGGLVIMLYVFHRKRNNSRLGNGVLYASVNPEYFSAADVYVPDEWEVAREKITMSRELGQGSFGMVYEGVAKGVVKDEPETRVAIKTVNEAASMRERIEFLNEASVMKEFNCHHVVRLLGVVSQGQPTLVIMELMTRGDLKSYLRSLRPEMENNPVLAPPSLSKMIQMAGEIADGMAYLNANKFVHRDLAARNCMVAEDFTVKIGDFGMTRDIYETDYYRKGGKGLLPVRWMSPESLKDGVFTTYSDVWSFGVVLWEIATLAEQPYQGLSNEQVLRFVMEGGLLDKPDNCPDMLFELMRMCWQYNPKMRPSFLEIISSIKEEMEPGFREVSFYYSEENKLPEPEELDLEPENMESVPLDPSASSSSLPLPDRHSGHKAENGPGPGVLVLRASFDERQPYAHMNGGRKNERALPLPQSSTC", "settings": "IGF1R, ZLYTE, ATP Km app"}, "off-target kinases [2]": {"molecular_target": "off-target kinases (Homo sapiens, UniProt P29317)", "sequence (P29317 24-976)": "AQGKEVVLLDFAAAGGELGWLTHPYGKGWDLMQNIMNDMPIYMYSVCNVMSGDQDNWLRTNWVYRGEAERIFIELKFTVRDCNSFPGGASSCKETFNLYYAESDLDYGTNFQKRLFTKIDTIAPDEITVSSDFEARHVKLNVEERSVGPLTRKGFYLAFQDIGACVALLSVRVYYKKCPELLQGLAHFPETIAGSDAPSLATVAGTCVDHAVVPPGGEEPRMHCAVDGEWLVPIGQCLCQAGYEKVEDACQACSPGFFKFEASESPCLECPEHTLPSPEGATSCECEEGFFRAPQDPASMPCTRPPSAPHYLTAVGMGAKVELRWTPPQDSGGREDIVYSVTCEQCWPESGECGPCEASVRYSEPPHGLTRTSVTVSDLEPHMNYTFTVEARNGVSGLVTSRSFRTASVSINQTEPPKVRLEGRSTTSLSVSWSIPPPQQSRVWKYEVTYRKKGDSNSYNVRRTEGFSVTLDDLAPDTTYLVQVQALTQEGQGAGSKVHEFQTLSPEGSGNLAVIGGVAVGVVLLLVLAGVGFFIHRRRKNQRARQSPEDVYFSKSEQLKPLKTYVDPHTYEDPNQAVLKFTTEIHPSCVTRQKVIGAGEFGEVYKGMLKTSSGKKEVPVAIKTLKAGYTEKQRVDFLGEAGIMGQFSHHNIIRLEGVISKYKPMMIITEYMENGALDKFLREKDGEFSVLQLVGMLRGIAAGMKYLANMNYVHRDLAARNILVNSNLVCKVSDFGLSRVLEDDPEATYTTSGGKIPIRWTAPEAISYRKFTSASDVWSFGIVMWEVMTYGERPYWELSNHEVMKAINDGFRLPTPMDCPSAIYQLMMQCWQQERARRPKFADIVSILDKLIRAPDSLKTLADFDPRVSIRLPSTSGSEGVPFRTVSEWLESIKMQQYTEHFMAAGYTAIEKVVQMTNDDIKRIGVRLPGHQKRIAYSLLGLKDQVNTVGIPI", "settings": "EPHA2, ZLYTE, ATP Km app"}, "off-target kinases [3]": {"molecular_target": "T1, off-target kinases (Homo sapiens, UniProt Q9H2K8)", "T1 sequence (Q9H2K8 1-898)": "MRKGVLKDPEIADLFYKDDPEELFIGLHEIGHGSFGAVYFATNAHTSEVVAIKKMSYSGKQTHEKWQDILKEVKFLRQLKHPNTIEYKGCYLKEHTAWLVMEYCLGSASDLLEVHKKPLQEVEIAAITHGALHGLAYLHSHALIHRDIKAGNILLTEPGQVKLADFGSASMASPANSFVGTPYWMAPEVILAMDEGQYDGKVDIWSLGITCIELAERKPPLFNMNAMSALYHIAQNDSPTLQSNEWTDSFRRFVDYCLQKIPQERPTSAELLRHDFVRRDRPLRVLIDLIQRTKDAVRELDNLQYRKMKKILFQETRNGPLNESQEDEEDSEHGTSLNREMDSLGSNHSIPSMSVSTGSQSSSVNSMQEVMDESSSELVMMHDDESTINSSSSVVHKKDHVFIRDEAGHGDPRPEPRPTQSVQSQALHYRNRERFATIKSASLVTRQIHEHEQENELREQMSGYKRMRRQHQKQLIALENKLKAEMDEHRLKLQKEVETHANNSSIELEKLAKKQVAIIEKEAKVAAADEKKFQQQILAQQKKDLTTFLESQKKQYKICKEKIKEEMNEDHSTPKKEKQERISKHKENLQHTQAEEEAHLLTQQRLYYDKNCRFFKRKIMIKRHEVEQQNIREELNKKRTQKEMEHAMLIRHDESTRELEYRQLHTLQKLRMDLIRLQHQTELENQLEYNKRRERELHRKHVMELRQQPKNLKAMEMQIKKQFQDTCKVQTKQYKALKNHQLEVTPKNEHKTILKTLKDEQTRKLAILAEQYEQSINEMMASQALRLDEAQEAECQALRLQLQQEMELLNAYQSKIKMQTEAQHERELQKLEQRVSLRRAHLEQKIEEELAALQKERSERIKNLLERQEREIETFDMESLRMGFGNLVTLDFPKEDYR", "settings": "TAOK3 (JIK), LanthaScreen Binding"}, "off-target kinases [4]": {"molecular_target": "off-target kinases (Homo sapiens, UniProt Q9H422)", "sequence (Q9H422 whole entry)": "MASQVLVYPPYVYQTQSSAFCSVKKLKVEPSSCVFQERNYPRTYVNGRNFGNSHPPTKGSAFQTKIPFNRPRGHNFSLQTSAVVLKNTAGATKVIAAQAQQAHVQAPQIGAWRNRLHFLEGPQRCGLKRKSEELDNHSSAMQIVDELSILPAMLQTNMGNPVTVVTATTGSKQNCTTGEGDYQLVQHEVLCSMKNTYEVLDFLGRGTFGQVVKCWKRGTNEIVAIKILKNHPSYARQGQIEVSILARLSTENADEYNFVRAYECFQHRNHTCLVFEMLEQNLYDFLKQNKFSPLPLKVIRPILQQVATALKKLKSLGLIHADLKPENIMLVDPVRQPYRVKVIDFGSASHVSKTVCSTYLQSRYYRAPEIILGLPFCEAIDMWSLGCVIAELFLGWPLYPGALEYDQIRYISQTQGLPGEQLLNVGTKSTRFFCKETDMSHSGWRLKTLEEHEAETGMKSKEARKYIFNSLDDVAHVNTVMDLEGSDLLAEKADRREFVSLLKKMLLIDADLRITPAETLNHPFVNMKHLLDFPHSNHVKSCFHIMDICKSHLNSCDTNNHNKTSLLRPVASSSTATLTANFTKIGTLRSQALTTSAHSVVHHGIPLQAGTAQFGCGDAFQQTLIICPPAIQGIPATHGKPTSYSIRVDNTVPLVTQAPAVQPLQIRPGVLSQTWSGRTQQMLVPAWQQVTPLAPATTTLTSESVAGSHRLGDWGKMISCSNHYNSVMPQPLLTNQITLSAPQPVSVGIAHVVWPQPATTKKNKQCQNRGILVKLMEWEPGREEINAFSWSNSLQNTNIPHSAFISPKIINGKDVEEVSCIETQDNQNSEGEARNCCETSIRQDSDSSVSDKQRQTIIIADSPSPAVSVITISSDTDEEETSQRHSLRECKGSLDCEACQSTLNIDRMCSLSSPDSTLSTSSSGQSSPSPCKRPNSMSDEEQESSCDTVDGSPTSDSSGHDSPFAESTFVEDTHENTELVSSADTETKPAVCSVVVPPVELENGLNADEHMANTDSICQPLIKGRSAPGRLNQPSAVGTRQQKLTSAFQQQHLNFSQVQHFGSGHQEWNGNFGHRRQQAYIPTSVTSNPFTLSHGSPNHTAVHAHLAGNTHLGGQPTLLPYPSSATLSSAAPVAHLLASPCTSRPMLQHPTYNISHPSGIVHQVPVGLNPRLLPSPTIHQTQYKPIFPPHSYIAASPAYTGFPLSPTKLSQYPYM", "settings": "HIPK3 (YAK1), ZLYTE, ATP Km app"}, "off-target kinases [5]": {"molecular_target": "T2, off-target kinases (Homo sapiens, UniProt Q9NRA0)", "T2 sequence (Q9NRA0 1-654)": "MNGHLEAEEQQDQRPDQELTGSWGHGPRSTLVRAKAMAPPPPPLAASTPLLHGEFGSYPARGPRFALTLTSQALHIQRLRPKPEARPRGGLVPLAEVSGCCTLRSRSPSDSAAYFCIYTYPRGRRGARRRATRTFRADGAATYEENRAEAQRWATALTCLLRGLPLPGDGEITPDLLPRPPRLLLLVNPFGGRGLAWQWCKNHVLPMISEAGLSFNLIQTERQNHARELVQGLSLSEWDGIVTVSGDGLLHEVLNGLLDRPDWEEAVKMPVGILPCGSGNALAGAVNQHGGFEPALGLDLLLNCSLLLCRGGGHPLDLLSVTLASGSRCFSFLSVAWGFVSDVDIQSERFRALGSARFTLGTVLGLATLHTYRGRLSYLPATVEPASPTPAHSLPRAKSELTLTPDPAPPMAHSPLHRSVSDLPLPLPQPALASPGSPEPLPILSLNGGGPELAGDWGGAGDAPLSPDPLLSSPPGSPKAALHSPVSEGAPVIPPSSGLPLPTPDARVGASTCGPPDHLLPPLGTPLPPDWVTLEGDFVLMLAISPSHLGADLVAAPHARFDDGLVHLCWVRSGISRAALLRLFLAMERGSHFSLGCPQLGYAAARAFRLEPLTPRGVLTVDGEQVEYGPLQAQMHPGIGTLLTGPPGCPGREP", "settings": "SPHK2; Cmpd1 1000 μM; ATP 10; Adapta"}}, "note": "Read-outs that look alike come from different tables or passages of the source."}
{"compound": "N#Cc1cc(-c2ncnc(Nc3ccc(N4CCN(C5COC5)CC4)cc3)n2)ccc1OC1CCOCC1", "note": "[Compound 1, 5-(4-((4-(4-(oxetan-3-yl)piperazin-1-yl)phenyl)amino)-1,3,5-triazin-2-yl)-2-((tetrahydro-2H-pyran-4-yl)oxy)benzonitrile]", "values": [{"measurement": "inhibition", "setting": "off-target kinases [1]; read-out: % Inhibition 1", "result": 1, "unit": "%"}, {"measurement": "inhibition", "setting": "off-target kinases [1]; read-out: % Inhibition 2", "result": 2, "unit": "%"}, {"measurement": "inhibition", "setting": "off-target kinases [1]; read-out: % Inhibition Avg", "result": 1, "unit": "%"}, {"measurement": "inhibition", "setting": "off-target kinases [2]; read-out: % Inhibition 1", "result": 1, "unit": "%"}, {"measurement": "inhibition", "setting": "off-target kinases [2]; read-out: % Inhibition 2", "result": 12, "unit": "%"}, {"measurement": "inhibition", "setting": "off-target kinases [2]; read-out: % Inhibition Avg", "result": 6, "unit": "%"}, {"measurement": "inhibition", "setting": "off-target kinases [3]; read-out: % Inhibition 1", "result": 3, "unit": "%"}, {"measurement": "inhibition", "setting": "off-target kinases [3]; read-out: % Inhibition 2", "result": 1, "unit": "%"}, {"measurement": "inhibition", "setting": "off-target kinases [3]; read-out: % Inhibition Avg", "result": 2, "unit": "%"}, {"measurement": "inhibition", "setting": "off-target kinases [4]; read-out: % Inhibition 1", "result": 15, "unit": "%"}, {"measurement": "inhibition", "setting": "off-target kinases [4]; read-out: % Inhibition 2", "result": 11, "unit": "%"}, {"measurement": "inhibition", "setting": "off-target kinases [4]; read-out: % Inhibition Avg", "result": 13, "unit": "%"}, {"measurement": "% Inhibition 1", "setting": "off-target kinases [5]", "result": "−16", "unit": "%"}, {"measurement": "% Inhibition 2", "setting": "off-target kinases [5]", "result": "−2", "unit": "%"}, {"measurement": "% Inhibition Avg", "setting": "off-target kinases [5]", "result": "−9", "unit": "%"}]}
